In US5866609A, “Substituted vinylurea derivatives and medicine containing the same” (SS Pharmaceutical Co., Ltd., priority 1996, dated 1999):

Key:
ACAT in J774 cells = target: T1, ACAT in J774 cells (Mus musculus, UniProt Q61263); assay: inhibitory activity against ACAT using J774 cells; format: cell-based; details: 100 nM of each compound, mean ± S.D., n = 3, 4 hours at 37° C., vs DMSO control, read-out: Inhibition rate against ACAT activity in J774 cells (%)
T1 construct: endogenous in cells; host or cells: J774 cells (mouse macrophage-like)
T1 sequence (Q61263 1-540): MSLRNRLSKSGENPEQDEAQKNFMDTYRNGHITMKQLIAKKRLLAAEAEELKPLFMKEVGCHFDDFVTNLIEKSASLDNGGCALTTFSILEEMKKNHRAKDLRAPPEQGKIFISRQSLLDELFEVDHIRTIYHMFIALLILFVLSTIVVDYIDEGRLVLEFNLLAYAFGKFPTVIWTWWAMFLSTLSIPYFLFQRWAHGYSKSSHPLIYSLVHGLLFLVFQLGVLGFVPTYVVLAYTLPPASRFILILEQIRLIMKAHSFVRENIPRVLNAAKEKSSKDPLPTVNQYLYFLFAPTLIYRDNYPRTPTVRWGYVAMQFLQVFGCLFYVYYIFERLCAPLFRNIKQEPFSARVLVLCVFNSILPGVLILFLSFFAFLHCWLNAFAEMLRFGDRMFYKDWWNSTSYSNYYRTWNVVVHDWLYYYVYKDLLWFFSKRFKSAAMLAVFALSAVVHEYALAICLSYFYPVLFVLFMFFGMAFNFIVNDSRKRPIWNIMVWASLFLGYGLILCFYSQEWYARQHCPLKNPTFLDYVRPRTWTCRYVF
Procedure: i) Test for inhibitory activity against ACAT using J774 cells:
The ACAT activity of J774 cells was measured as the radioactivity of cholesteryl oleate produced from [^14 C]oleic acid and cholesterol which were added to a culture solution.
Added to the cells were [^14 C]oleic acid, delipidized BAS (bovine serum albumin), […] (0.3M glucose solution containing cholesterol and phosphatidylcholine at a weight ratio of 2:1) and 25-hydroxycholesterol to culture the cells for 4 hours at 37° C. under 5% CO2. After the culturing, the cultured cells were disrupted with a 1% SDS (sodium lauryl sulfate) solution, and the lipid in the disrupted solution was extracted with hexane. The extract was dried to solid under reduced pressure. After the resultant residue was then developed (developing solvent: diethyl ether/hexane/acetic acid=80/20/1) by TLC (thin-layer chromatography), the amount of cholesteryl oleate formed was determined by an imaging plate.

[1] = target: T2, ACAT of rat liver microsome (Rattus norvegicus, UniProt Q7TQM4); assay: inhibitory activity against ACAT using rat liver microsome; format: biochemical; details: 5 min; 100 nM of each compound; Mean + S.D.; n = 3; 37° C. for 5 minutes; vs DMSO control; read-out: Inhibition rate against ACAT activity in rat liver microsome (%)
T2 construct: from tissue; host or cells: rat liver microsomes
T2 sequence (Q7TQM4 1-524): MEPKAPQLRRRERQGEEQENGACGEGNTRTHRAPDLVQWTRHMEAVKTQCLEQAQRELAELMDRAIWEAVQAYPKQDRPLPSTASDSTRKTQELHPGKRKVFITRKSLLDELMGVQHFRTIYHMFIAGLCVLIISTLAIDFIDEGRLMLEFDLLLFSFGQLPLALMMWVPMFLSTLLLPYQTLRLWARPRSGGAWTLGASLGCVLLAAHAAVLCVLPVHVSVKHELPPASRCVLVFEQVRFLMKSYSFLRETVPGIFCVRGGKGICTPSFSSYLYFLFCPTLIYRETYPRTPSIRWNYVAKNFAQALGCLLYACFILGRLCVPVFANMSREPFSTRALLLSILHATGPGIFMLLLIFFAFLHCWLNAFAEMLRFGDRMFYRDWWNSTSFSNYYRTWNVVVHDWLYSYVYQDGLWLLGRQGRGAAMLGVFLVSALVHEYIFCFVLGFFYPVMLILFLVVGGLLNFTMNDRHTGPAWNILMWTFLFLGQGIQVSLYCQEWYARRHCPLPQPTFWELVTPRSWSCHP
Procedure: - ii) Test for inhibitory activity against ACAT using rat liver microsome
The ACAT activity of rat liver microsome was measured as the radioactivity of cholesteryl oleate produced from [^14 C]oleoyl-CoA and endogenous cholesterol.
More specifically, [^14 C]oleoyl-CoA and delipidized BSA were added to a rat liver microsome fraction prepared in accordance with a method known per se in the art to conduct a reaction at 37° C. for 5 minutes. After the reaction, the lipid in the reaction mixture was extracted with hexane, and the extract was dried to solid under reduced pressure. After the resultant residue was then developed (developing solvent: diethyl ether/hexane/acetic acid 80/20/1) by TLC, the amount of cholesteryl oleate formed was determined by an imaging plate.

Row | Structure (SMILES) | inhibition at 0.1 µM (ACAT in J774 cells) [%] | inhibition at 0.1 µM [1] [%]
1 | Cc1cc2ncc(NC(=O)Nc3ccc(F)cc3F)c(-c3ccccc3Cl)c2cc1C [TMP-153] | 36.9 ± 11.9 | 82.3 ± 2.79
2 | COc1ccc(C(=CNC(=O)Nc2c(C(C)C)cccc2C(C)C)c2ccc(OC)cc2)cc1 [Compound 3] | 77.8 ± 4 | 7.87 ± 9.26
